Results taken from patent publication US20150105252A1, “SUBSTITUTED PYRAZOLES AS HERBICIDES” (E I DU PONT DE NEMOURS AND COMPANY, priority 2013, published 2015).

Key:
bluegrass = assay: Test D preemergence; assay type: in vivo, Poa annua; conditions: scale 0 to 100
Source text: (§1) Seeds of plant species selected from bluegrass (annual bluegrass, Poa annua), blackgrass (Alopecurus myosuroides), canarygrass (littleseed canarygrass, Phalaris minor), chickweed (common chickweed, Stellaria media), galium (catchweed bedstraw, Galium aparine), bromegrass, downy (downy bromegrass, Bromus tectorum), field poppy (Papaver rhoeas), field violet (Viola arvensis), foxtail, green (green foxtail, Setaria viridis), deadnettle (henbit deadnettle, Lamium amplexicaule), ryegrass, Italian (Italian ryegrass, Lolium multiflorum), kochia (Kochia scoparia), lambsquarters (Chenopodium album), oilseed rape (Brassica napus), pigweed (redroot pigweed, Amaranthus retroflexus), chamomile (scentless chamomile, Matricaria inodora), speedwell (bird's-eye speedwell, Veronica persica), barley, spring (spring barley, Hordeum vulgare), wheat, spring (spring wheat, Triticum aestivum), buckwheat, wild (wild buckwheat, Polygonum convolvulus), mustard, wild (wild mustard, Sinapis arvensis), oat, wild (wild oat, Avena fatua), radish, wild (wild radish, Raphanus raphanistrum), windgrass (Apera spica-venti), Russian thistle (Salsola kali), barley, winter (winter barley, Hordeum vulgare), and wheat, winter (winter wheat, Triticum aestivum) were planted into a silt loam soil and treated preemergence with test chemicals formulated in a non-phytotoxic solvent mixture which included a surfactant.
(§2) At the same time, these species were planted in pots containing Redi-Earth® planting medium (Scotts Company, 14111 Scottslawn Road, Marysville, Ohio 43041) comprising spaghnum peat moss, vermiculite, wetting agent and starter nutrients and treated with postemergence applications of the test chemicals formulated in the same manner. Plants ranged in height from 2 to 18 cm (1- to 4-leaf stage). Treated plants and controls were maintained in a controlled growth environment for 14 to 21 days after which time all species were compared to controls and visually evaluated. Plant response ratings, summarized in Table D, are based on a scale of 0 to 100 where 0 is no effect and 100 is complete control. A dash (-) response means no test result.

blackgrass = assay: Test D preemergence; assay type: in vivo, Alopecurus myosuroides; conditions: scale 0 to 100
Source text: as §1, §2

galium = assay: Test D preemergence; assay type: in vivo, Galium aparine; conditions: scale 0 to 100
Source text: as §1, §2

field poppy = assay: Test D preemergence; assay type: in vivo, Papaver rhoeas; conditions: scale 0 to 100
Source text: as §1, §2

foxtail, green = assay: Test D preemergence; assay type: in vivo, Setaria viridis; conditions: scale 0 to 100
Source text: as §1, §2

lambsquarters = assay: Test D preemergence; assay type: in vivo, Chenopodium album; conditions: scale 0 to 100
Source text: as §1, §2

mustard, wild = assay: Test D preemergence; assay type: in vivo, Sinapis arvensis; conditions: scale 0 to 100
Source text: as §1, §2

ryegrass, Italian = assay: Test D postemergence; assay type: in vivo, Lolium multiflorum; conditions: scale 0 to 100
Source text: as §1, §2

wheat, spring = assay: Test D postemergence; assay type: in vivo, Triticum aestivum; conditions: scale 0 to 100
Source text: as §1, §2

wheat, winter = assay: Test D postemergence; assay type: in vivo, Triticum aestivum; conditions: scale 0 to 100
Source text: as §1, §2

corn = assay: Test F preemergence; assay type: in vivo, Zea mays
Source text: (§3) Seeds of plant species selected from corn (Zea mays), soybean (Glycine max), velvetleaf (Abutilon theophrasti), lambsquarters (Chenopodium album), wild poinsettia (Euphorbia heterophylla), pigweed, palmer (palmer pigweed, Amaranthus palmeri), common waterhemp (Amaranthus rudis), surinam grass (Brachiaria decumbens), large crabgrass (Digitaria sanguinalis), crabgrass, Brazil (Brazilian crabgrass, Digitaria horizontalis), fall panicum (Panicum dichotomiflorum), giant foxtail (Setaria faberii), green foxtail (Setaria viridis), goosegrass (Eleusine indica), johnsongrass (Sorghum halepense), common ragweed (Ambrosia elation), barnyardgrass (Echinochloa crus-galli), southern sandbur (Cenchrus echinatus), arrowleaf sida (Sida rhombifolia), Italian ryegrass (Lolium multiflorum), dayflower, VA (Virginia (VA) dayflower, Commelina virginica), field bindweed (Convolvulus arvensis), cocklebur (common cocklebur, Xanthium strumarium), morningglory (Ipomoea coccinea), nightshade (eastern black nightshade, Solanum ptycanthum), kochia (Kochia scoparia), yellow nutsedge (Cyperus esculentus), and hairy beggarticks (Bidens pilosa), were planted into a silt loam soil and treated preemergence with test chemicals formulated in a non-phytotoxic solvent mixture which included a surfactant.
(§4) At the same time, plants from these crop and weed species and also horseweed (Canada horseweed, Conyza canadensis), smartweed (ladysthumb smartweed, Polygonum persicaria), waterhemp_RES1, (ALS & Triazine resistant common waterhemp, Amaranthus rudis), and waterhemp_RES2, (ALS & HPPD resistant common waterhemp, Amaranthus rudis) were treated with postemergence applications of test chemicals formulated in the same manner. Plants ranged in height from 2 to 18 cm for postemergence treatments (1- to 4-leaf stage). Treated plants and controls were maintained in a greenhouse for 14 to 21 days, after which time all species were compared to controls and visually evaluated. Plant response ratings, summarized in Table F, are based on a scale of 0 to 100 where 0 is no effect and 100 is complete control. A dash (-) response means no test result.

soybean = assay: Test F preemergence; assay type: in vivo, Glycine max
Source text: as §3, §4

pigweed, palmer = assay: Test F preemergence; assay type: in vivo, Amaranthus palmeri
Source text: as §3, §4

dayflower, VA = assay: Test F preemergence; assay type: in vivo, Commelina virginica
Source text: as §3, §4

[1] = Preemergence, 31 g ai/ha, scale 0 to 100
[2] = Preemergence, 62 g ai/ha, scale 0 to 100
[3] = Preemergence, 125 g ai/ha, scale 0 to 100
[4] = preemergence, 8 g ai/ha, scale 0 to 100, 100 is complete control
[5] = preemergence, 16 g ai/ha, scale 0 to 100, 100 is complete control
[6] = Preemergence, 16 g ai/ha, scale 0 to 100
[7] = Preemergence, 250 g ai/ha, scale 0 to 100

SMILES: CCc1cc(C(=O)NC(C)C)nn1Cc1ccnc(C(F)(F)F)c1 [Compound 103]
- Plant response rating, Bluegrass (bluegrass; 31 g ai/ha): 10
- Plant response rating, Bluegrass (bluegrass; 62 g ai/ha): 35
- Plant response rating, Bluegrass (bluegrass; 125 g ai/ha): 65
- Plant response rating, Bluegrass (bluegrass; 250 g ai/ha): 85
- Plant response rating, Blackgrass (blackgrass; 62 g ai/ha): 50
- Plant response rating, Blackgrass (blackgrass; 125 g ai/ha): 85
- Plant response rating, Blackgrass (blackgrass; 250 g ai/ha): 100
- Plant response rating, Galium (galium; 31 g ai/ha): 50
- Plant response rating, Galium (galium; 62 g ai/ha): 100
- Plant response rating, Galium (galium; 125 g ai/ha): 100
- Plant response rating, Galium (galium; 250 g ai/ha): 100
- Plant response rating, Field Poppy (field poppy; 31 g ai/ha): 100
- Plant response rating, Field Poppy (field poppy; 62 g ai/ha): 100
- Plant response rating, Field Poppy (field poppy; 125 g ai/ha): 100
- Plant response rating, Field Poppy (field poppy; 250 g ai/ha): 100
- Plant response rating, Foxtail, Green (foxtail, green; 31 g ai/ha): 20
- Plant response rating, Foxtail, Green (foxtail, green; 62 g ai/ha): 100
- Plant response rating, Foxtail, Green (foxtail, green; 125 g ai/ha): 100
- Plant response rating, Foxtail, Green (foxtail, green; 250 g ai/ha): 100
- Plant response rating, Lambsquarters (lambsquarters; 31 g ai/ha): 65
- Plant response rating, Lambsquarters (lambsquarters; 62 g ai/ha): 70
- Plant response rating, Lambsquarters (lambsquarters; 125 g ai/ha): 100
- Plant response rating, Lambsquarters (lambsquarters; 250 g ai/ha): 100
- Plant response rating, Mustard, Wild (mustard, wild; 31 g ai/ha): 55
- Plant response rating, Mustard, Wild (mustard, wild; 62 g ai/ha): 60
- Plant response rating, Mustard, Wild (mustard, wild; 125 g ai/ha): 75
- Plant response rating, Mustard, Wild (mustard, wild; 250 g ai/ha): 100
- Ryegrass, Italian plant response rating (ryegrass, Italian; Postemergence, 31 g ai/ha): 5
- Ryegrass, Italian plant response rating (ryegrass, Italian; Postemergence, 125 g ai/ha): 5
- Ryegrass, Italian plant response rating (ryegrass, Italian; Postemergence, 250 g ai/ha): 35
- Ryegrass, Italian plant response rating (ryegrass, Italian; postemergence, 62 g ai/ha): 5
- Wheat, Spring plant response rating (wheat, spring; Postemergence, 31 g ai/ha): 0
- Wheat, Spring plant response rating (wheat, spring; Postemergence, 125 g ai/ha): 0
- Wheat, Spring plant response rating (wheat, spring; Postemergence, 250 g ai/ha): 5
- Wheat, Spring plant response rating (wheat, spring; postemergence, 62 g ai/ha): 0
- Wheat, Winter plant response rating (wheat, winter; Postemergence, 31 g ai/ha): 0
- Wheat, Winter plant response rating (wheat, winter; Postemergence, 125 g ai/ha): 10
- Wheat, Winter plant response rating (wheat, winter; Postemergence, 250 g ai/ha): 30
- Wheat, Winter plant response rating (wheat, winter; postemergence, 62 g ai/ha): 5

SMILES: CCOc1cc(C(=O)NCC(F)(F)F)nn1Cc1ccnc(C(F)(F)F)c1 [Compound 104]
- Plant response rating, Corn (corn; [1]): 30
- Plant response rating, Corn (corn; [2]): 50
- Plant response rating, Corn (corn; [3]): 60
- Plant response rating, Corn (corn; [4]): 0
- Plant response rating, Corn (corn; [5]): 0
- Plant response rating, Soybean (soybean; [1]): 25
- Plant response rating, Soybean (soybean; [2]): 70
- Plant response rating, Soybean (soybean; [3]): 90
- Plant response rating, Soybean (soybean; [4]): 0
- Plant response rating, Soybean (soybean; [5]): 0
- Plant response rating, Pigweed, Palmer (pigweed, palmer; [1]): 50
- Plant response rating, Pigweed, Palmer (pigweed, palmer; [2]): 50
- Plant response rating, Pigweed, Palmer (pigweed, palmer; [3]): 100
- Plant response rating, Pigweed, Palmer (pigweed, palmer; [4]): 0
- Plant response rating, Pigweed, Palmer (pigweed, palmer; [5]): 0
- Plant response rating, Dayflower, VA (dayflower, VA; [1]): 50
- Plant response rating, Dayflower, VA (dayflower, VA; [2]): 98
- Plant response rating, Dayflower, VA (dayflower, VA; [3]): 100
- Plant response rating, Dayflower, VA (dayflower, VA; [4]): 0
- Plant response rating, Dayflower, VA (dayflower, VA; [5]): 0

SMILES: CCNC(=O)c1cc(CCCl)n(Cc2ccnc(C(F)(F)F)c2)n1 [Compound 179]
- Plant response rating, Corn (corn; [1]): 20
- Plant response rating, Corn (corn; [2]): 30
- Plant response rating, Corn (corn; [3]): 30
- Plant response rating, Corn (corn; [4]): 0
- Plant response rating, Soybean (soybean; [1]): 35
- Plant response rating, Soybean (soybean; [2]): 65
- Plant response rating, Soybean (soybean; [3]): 70
- Plant response rating, Soybean (soybean; [4]): 0
- Plant response rating, Pigweed, Palmer (pigweed, palmer; [1]): 0
- Plant response rating, Pigweed, Palmer (pigweed, palmer; [2]): 35
- Plant response rating, Pigweed, Palmer (pigweed, palmer; [3]): 100
- Plant response rating, Pigweed, Palmer (pigweed, palmer; [4]): 0
- Plant response rating, Dayflower, VA (dayflower, VA; [1]): 0
- Plant response rating, Dayflower, VA (dayflower, VA; [2]): 10
- Plant response rating, Dayflower, VA (dayflower, VA; [3]): 40
- Plant response rating, Dayflower, VA (dayflower, VA; [4]): 0

SMILES: CCNC(=O)c1cc(CC)n(Cc2ccnc(C(F)(F)F)c2)n1 [Compound 196]
- Plant response rating, Corn (corn; [2]): 0
- Plant response rating, Corn (corn; [3]): 25
- Plant response rating, Corn (corn; [4]): 0
- Plant response rating, Corn (corn; [5]): 0
- Plant response rating, Soybean (soybean; [6]): 20
- Plant response rating, Soybean (soybean; [2]): 50
- Plant response rating, Soybean (soybean; [3]): 50
- Plant response rating, Soybean (soybean; [4]): 0
- Plant response rating, Soybean (soybean; [5]): 0
- Plant response rating, Pigweed, Palmer (pigweed, palmer; [2]): 100
- Plant response rating, Pigweed, Palmer (pigweed, palmer; [3]): 100
- Plant response rating, Pigweed, Palmer (pigweed, palmer; [4]): 0
- Plant response rating, Pigweed, Palmer (pigweed, palmer; [5]): 0
- Plant response rating, Dayflower, VA (dayflower, VA; [2]): 35
- Plant response rating, Dayflower, VA (dayflower, VA; [3]): 75
- Plant response rating, Dayflower, VA (dayflower, VA; [4]): 0
- Plant response rating, Dayflower, VA (dayflower, VA; [5]): 0

SMILES: Cc1cc(C(=O)NC(C)C)nn1Cc1ccnc(C(F)(F)F)c1 [Compound 197]
- Plant response rating, Corn (corn; [2]): 0
- Plant response rating, Corn (corn; [3]): 20
- Plant response rating, Corn (corn; [4]): 0
- Plant response rating, Corn (corn; [5]): 0
- Plant response rating, Soybean (soybean; [6]): 10
- Plant response rating, Soybean (soybean; [2]): 20
- Plant response rating, Soybean (soybean; [3]): 65
- Plant response rating, Soybean (soybean; [4]): 0
- Plant response rating, Soybean (soybean; [5]): 5
- Plant response rating, Pigweed, Palmer (pigweed, palmer; [2]): 95
- Plant response rating, Pigweed, Palmer (pigweed, palmer; [3]): 90
- Plant response rating, Pigweed, Palmer (pigweed, palmer; [4]): 10
- Plant response rating, Pigweed, Palmer (pigweed, palmer; [5]): 35
- Plant response rating, Dayflower, VA (dayflower, VA; [2]): 0
- Plant response rating, Dayflower, VA (dayflower, VA; [3]): 40
- Plant response rating, Dayflower, VA (dayflower, VA; [4]): 0
- Plant response rating, Dayflower, VA (dayflower, VA; [5]): 0

SMILES: CCc1cc(C(=O)NC2CC2)nn1Cc1ccnc(OCC(F)(F)F)c1 [Compound 200]
- Plant response rating, Corn (corn; [7]): 35
- Plant response rating, Corn (corn; [2]): 0
- Plant response rating, Corn (corn; [3]): 0
- Plant response rating, Corn (corn; [5]): 0
- Plant response rating, Soybean (soybean; [7]): 75
- Plant response rating, Soybean (soybean; [6]): 0
- Plant response rating, Soybean (soybean; [2]): 0
- Plant response rating, Soybean (soybean; [3]): 65
- Plant response rating, Soybean (soybean; [5]): 0
- Plant response rating, Pigweed, Palmer (pigweed, palmer; [7]): 85
- Plant response rating, Pigweed, Palmer (pigweed, palmer; [2]): 0
- Plant response rating, Pigweed, Palmer (pigweed, palmer; [3]): 95
- Plant response rating, Pigweed, Palmer (pigweed, palmer; [5]): 0
- Plant response rating, Dayflower, VA (dayflower, VA; [7]): 60
- Plant response rating, Dayflower, VA (dayflower, VA; [2]): 0
- Plant response rating, Dayflower, VA (dayflower, VA; [3]): 10
- Plant response rating, Dayflower, VA (dayflower, VA; [5]): 0
